In ChEMBL document CHEMBL3297701, “Functionalization, cyclization and antiviral activity of A-secotriterpenoids” (Eur J Med Chem, 2014):

How the values were obtained:
[1] = microbe, parasite or virus in culture; type: functional, Influenza A virus (A/ts1/1/A/FPV/Rostock/1934(H7N1)); details: Influenza A virus, 36 h
in vitro = details: chicken, primary chicken embryo cells
[2] = tested on: Human immunodeficiency virus 1; experiment: Antiviral activity against HIV-1 zmb infected in human MT-4 cells after 72 hrs by MTT assay; type: functional, organism-based, MT4
[3] = Selectivity ratio of MTD for human MT-4 cells to EC50 for HIV-1 zmb infected in human MT-4 cells; type: ADME, cell-based, MT4
[4] = Human immunodeficiency virus 1, zmb, MT4, 72 h, read-out: EC50

Row | SMILES | EC50 [1] | selectivity ratio (in vitro) | EC50 [2, 4] | selectivity ratio [3] | EC50 ([2]; mt4)
1 | C=C(C)[C@@H]1CC[C@]2(C(=O)O)CC[C@]3(C)[C@H](CC[C@@H]4[C@@](C)(CC#N)[C@H](C(C)(C)C=O)CC[C@]43C)[C@@H]12 | 7.7 µM | 3.5 | – | – | –
2 | C=C(C)[C@@H]1CC[C@]2(C(=O)OC)CC[C@]3(C)[C@H](CC[C@@H]4[C@@]5(C)C(C#N)=CC(C)(C)[C@@H]5CC[C@]43C)[C@@H]12 | – | – | 50.5 µM | 3.2 | –
3 | CC1(C)C=C(C#N)[C@]2(C)[C@H]3CC[C@@H]4[C@H]5[C@H]6OC[C@@]5(CCC6(C)C)CC[C@@]4(C)[C@]3(C)CC[C@@H]12 | – | – | – | – | Not Active
4 | C=C(C)[C@@H]1CC[C@]2(C(=O)O)CC[C@]3(C)[C@H](CC[C@@H]4[C@@](C)(CC#N)[C@H](C(C)(C)/C=N/O)CC[C@]43C)[C@@H]12 | 18.2 µM | 5.7 | 0.06 µM | 50 | –
5 | C=C(C)[C@@H]1CC[C@]2(C(=O)OC)CC[C@]3(C)[C@H](CC[C@@H]4[C@@](C)(CC#N)[C@H](C(C)(C)/C=N/O)CC[C@]43C)[C@@H]12 | 22.7 µM | 35.4 | – | – | Not Active
6 | CC(C)(/C=N/O)[C@@H]1CC[C@]2(C)[C@H](CC[C@@H]3[C@H]4[C@H]5OC[C@@]4(CCC5(C)C)CC[C@]32C)[C@@]1(C)CC#N | 58.7 µM | 7.2 | – | – | –
7 | C/N=C/C(C)(C)[C@@H]1CC[C@]2(C)[C@H](C(=O)C=C3[C@@H]4C[C@@](C)(C(=O)OC)CC[C@]4(C)CC[C@]32C)[C@@]1(C)CC#N | 51.9 µM | 15.1 | – | – | –
8 | C=C(C)[C@@H]1CC[C@]2(C(=O)OC)CC[C@]3(C)[C@H](CC[C@@H]4[C@@]5(C)C(C#N)=C(N)C(C)(C)[C@@H]5CC[C@]43C)[C@@H]12 | – | – | – | – | Not Active
9 | CC1(C)CC[C@]23CC[C@]4(C)[C@H](CC[C@@H]5[C@@]6(C)C(C#N)=C(N)C(C)(C)[C@@H]6CC[C@]54C)[C@H]2[C@H]1OC3 | – | – | – | – | Not Active
10 | C=C(C)[C@@H]1CC[C@]2(C(=O)O)CC[C@]3(C)[C@H](CC[C@@H]4[C@@]5(C)C/C(=N\O)C(=O)C(C)(C)[C@@H]5CC[C@]43C)[C@@H]12 | 12.9 µM | 64.1 | 0.06 µM | 51.5 | –
11 | C=C(C)[C@@H]1CC[C@]2(C(=O)OC)CC[C@]3(C)[C@H](CC[C@@H]4[C@@]5(C)C/C(=N\O)C(=O)C(C)(C)[C@@H]5CC[C@]43C)[C@@H]12 | 98 µM | 4.1 | – | – | –
12 | CC1(C)CC[C@]23CC[C@]4(C)[C@H](CC[C@@H]5[C@@]6(C)C/C(=N\O)C(=O)C(C)(C)[C@@H]6CC[C@]54C)[C@H]2[C@H]1OC3 | > 100 µM | – | – | – | –
13 | C=C(C)[C@@H]1CC[C@]2(C(=O)O)CC[C@]3(C)[C@H](CC[C@@H]4[C@@]5(C)C/C(=N\O)[C@H](O)C(C)(C)[C@@H]5CC[C@]43C)[C@@H]12 | 31.5 µM | 6.8 | – | – | –
14 | C=C(C)[C@@H]1CC[C@]2(C(=O)OC)CC[C@]3(C)[C@H](CC[C@@H]4[C@@]5(C)C/C(=N\O)[C@H](O)C(C)(C)[C@@H]5CC[C@]43C)[C@@H]12 | > 100 µM | – | – | – | –
15 | CC1(C)CC[C@]23CC[C@]4(C)[C@H](CC[C@@H]5[C@@]6(C)C/C(=N\O)[C@H](O)C(C)(C)[C@@H]6CC[C@]54C)[C@H]2[C@H]1OC3 | > 100 µM | – | – | – | –
16 | COC(=O)[C@@]1(C)CCC2(C)CC[C@]3(C)C(=CC(=O)[C@@H]4[C@@](C)(CC#N)[C@H](C(C)(C)C=O)CC[C@]43C)[C@@H]2C1 (single isomer, unassigned) | 53.5 µM | 15.1 | – | – | –
17 | COC(=O)[C@@]1(C)CCC2(C)CC[C@]3(C)C(=CC(=O)[C@@H]4[C@@]5(C)C/C(=N\O)C(=O)C(C)(C)[C@@H]5CC[C@]43C)[C@@H]2C1 (single isomer, unassigned) | > 100 µM | – | – | – | –
18 | COC(=O)[C@@]1(C)CCC2(C)CC[C@]3(C)C(=CC(=O)[C@@H]4[C@@]5(C)C/C(=N\O)[C@H](O)C(C)(C)[C@@H]5CC[C@]43C)[C@@H]2C1 (single isomer, unassigned) | 57.2 µM | 3.4 | – | – | –
